Tests used:
[1] = tested on: Helicobacter pylori (ATCC 43504); experiment: Anti-microbial test: MIC by agar dilution method; assay type: cell-based; settings: ATCC43504, Columbia agar + 7% rabbit blood, 35° C., 72 hours, microaerophilic, highest concentration 300 μg/ml, read-out: Minimum inhibitory concentration (MIC)
Method: Minimum inhibitory concentration (MIC) of sample on Helicobacter pylori was determined by the agar dilution method [Malanosk G. J. et al. Effect of pH variation on the susceptibility of Helicobacter pylori to three marcolide antimicrobial agents and temafloxacin. Eur. J. Clin. Microbial Infect Dis. 12: pp. 131-133, 1993.]. The test substance was dissolved and serially diluted in DMSO to desired stock concentrations. For each concentration tested, a 0.01 ml aliquot is added to a 48-well plate containing 0.99 ml of Columbia agar base (Oxoid, England) supplemented 7% defibrinated rabbit blood. The inoculum of Helicobacter pylori (ATCC 43504) is prepared by suspending in brain heart infusion broth to a density of 5×10^5 CFU/ml. The final maximal concentration of DMSO is 1% and the initial test substance concentration is 300 μg/ml. The plates are incubated at 35° C. for 72 hours in the microaerophilic condition (Mixed gas N2 85%, CO2 10% and O2 5%) and then visually examined and scored positive (+) for inhibition of the colonies growth or negative (−) for no effect upon growth colonies. Vehicle-control and gentamicin are used as blank and positive controls, respectively. Each concentration is evaluated in duplicate.

[2] = tested on: Helicobacter pylori-induced gastric ulcer; experiment: Helicobacter pylori-induced gastric ulcer in mice; assay type: in vivo, male CD-1 (Crl.) derived mice; settings: 35 mg/kg orally for 7 days
Method: Effects of samples on Helicobacter pylori-induced gastric ulcer were evaluated as described previously [Marchetti, M., Arico, B., Burroni, D., Figura, N., Rappuoli, R. and Ghiara, P. Development of a mouse model of Helicobacter pylori infection that mimics human disease. Science 267: 1655-1658, 1995.]. Groups of 5 male CD-1 (Crl.) derived mice weighing 24±2 g were fasted for 18 hours prior to intragastric inoculation of clinical isolated Helicobacter pylori in suspension at 3.2×10^9 colony formation units/0.4 ml/mouse. Test samples and vehicle (2% CMC, 10 ml/kg) were each administered orally to test animals, starting one hour after the Helicobacter pylori inoculation, dosing twice daily (10:00 am and 4:00 pm) for 7 consecutive days. Omeprazole (1 mg/kg) and clarithromycin (10 mg/kg), in combination, were used for the positive control agents and administered orally to test animal once daily for 7 consecutive days under the same schedule. […] Gastric ulceration scored at four levels according to the degree of hemorrhage and severity of ulcerative lesions: • 0=normal appearance • 1=mild red spots • 2=moderate red spots and/or hemorrhage spots • 3=marked hemorrhage spots
Percentage inhibition on Helicobacter pylori-induced gastric ulcer was calculated as follows: (Scores of vehicle group−Scores of test group)/(Scores of vehicle group)×100% The results are shown in Table 3.

SMILES	MIC [1] [mg/L]	Percentage inhibition on Helicobacter pylori-induced gastric ulcer [2] [%]
CCCCC[C@H](O)CC(=O)CCc1ccc(O)c(OC)c1 [Sample 6-Gingerol, 6-Gingerol]	10	25
CCCCC/C=C/C(=O)CCc1ccc(O)c(OC)c1 [Shogaol]	10	–

From patent US8470379B2, “Use of a potent product extracted from rhizomes of zingiber officinale in treating a disease associated with Helicobacter pylori” (Medical and Pharmaceutical Industry Technology and …, priority 2007, dated 2013)
